Data: patent US7033829B2, “Method to inhibit cell growth using oligonucleotides” (Trustees of Boston University, priority 2000, dated 2006)
{P} = phosphate

Columns and labels:
[1] = tested on: mouse skin; assay: Photodamage of UVB-irradiated XPA+/+ and XPA−/− mouse skin; format: in vivo; settings: XPA−/− mice; 72 hours after last UV (diluent 15±5)
Description: Patients with a mutated xeroderma pigrnentosum group A (XPA) gene have a greater than 1000 fold increased risk of UV-induced skin cancer. XPA^−/− mice mimic the human syndrome [Kraemer, K. et al., pp. 256–261 In: Molecular Biology of Aging (Bohr, V. A., et al., eds.) Munksgaard, Copenhagen, 1999]. We have previously shown that oligonucleotides, particularly thymidine dinucleotide (pTT) and pGAGTATGAG (SEQ ID NO:1) that are partial homologs of the telomere overhang tandem repeat TTAGGG (SEQ ID NO:11), increase levels of proteins involved in nucleotide excision repair and enhance the DNA repair rate. […] The mice were UV irradiated on day 5 with a previously determined erythemogenic UVB dose. […] Seventy-two hours after the last dose of […], the mouse skin was processed histologically to assess general morphology, proliferation (Ki-67) [Ohike N. and T Morohoshi, Pathol Int (2001), 51:770–777; Billgren, A. M. et al., Breast Cancer Res Treat (2002), 71:161–170], cyclobutane pyrimidine dimers (CPDs) determined by specific antibody binding, and on-going DNA repair [proliferating cell nuclear antigen (PCNA); see Savio, M. et al., Carcinogenesis (1998) 19:591–596; Rudolph, P. et al., Hum Pathol (1998) 29:1480–1487].

[2] = molecular target: p53 (Homo sapiens, UniProt P04637); assay: p53 assay using hGH reporter plasmid in keratinocytes; format: cell-based; design: expressed in transfected cells; vector from Dr. Bert Vogelstein; settings: 100 μM; 24 hours
Sequence of p53 (P04637 whole entry): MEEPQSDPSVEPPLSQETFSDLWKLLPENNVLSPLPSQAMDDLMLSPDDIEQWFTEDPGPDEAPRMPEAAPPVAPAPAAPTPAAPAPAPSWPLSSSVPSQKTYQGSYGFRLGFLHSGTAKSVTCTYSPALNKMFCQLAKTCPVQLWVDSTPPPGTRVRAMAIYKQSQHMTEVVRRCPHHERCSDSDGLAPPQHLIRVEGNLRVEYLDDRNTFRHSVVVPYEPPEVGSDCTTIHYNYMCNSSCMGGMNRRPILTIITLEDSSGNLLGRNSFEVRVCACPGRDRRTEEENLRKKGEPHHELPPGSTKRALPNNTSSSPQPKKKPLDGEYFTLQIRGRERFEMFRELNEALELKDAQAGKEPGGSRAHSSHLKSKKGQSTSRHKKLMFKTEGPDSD
Protocol: Transfection was performed in the presence of 100 μM pTpT (Midland Certified Reagent Company, Midland, Tex.) or an equal volume of diluent. At the same time, the PSV-β-galactosidase control vector (Promega, Madison, Wis.) was co-transfected to determine the transfection efficiency (Norton and Coffin, 1985). Four hours after transfection, the medium was removed and replaced with K-Stim medium with or without 100 μM pTpT. Twenty-four hours after transfection and pTpT treatment, 400 μl of the medium was harvested from each 35 mm culture dish, and 100 μl of ^125I-hGH antibody solution (Nichols Institute Diagnostics, San Juan Capistrano, Calif.) was added to detect secreted hGH as described below. The cells were harvested in a Reporter Lysis Buffer (Promega) using a protocol provided by the manufacturer, and 150 μl of this lysate was used for the β-galactosidase assay using a β-galactosidase assay kit (Promega). Samples from each of triplicate culture dishes were evaluated for hGH and β-galactosidase synthesis.
To confirm the activation of p53 by pTpT in a second assay, a reporter plasmid expressing the human growth hormone (hGH) gene under the influence of a p53 inducible promoter was employed. Activation of p53 increases its binding to the consensus sequence in the plasmid, leading to transcription of the hGH coding sequence and ultimately to secretion of hGH into the medium.

[3] = tested on: SOD2; assay: SOD2 western blot in fibroblasts; format: cell-based, human; settings: 100 μM
Protocol: Fibroblasts (newborn human) were maintained in Dulbecco's Modified Eagle Medium (DMEM) supplemented with 10% calf serum (CS) and 100 μM pTpT or diluent as control. Total cellular proteins were harvested at different intervals after stimulation and processed for western blot analysis. The blot was reacted with anti SOD2 antibodies (The Binding Site, Inc. San Diego, Calif.). […] Coomassie blue-stained residual bands on the gel confirmed uniform loading of the different lanes.

Row | Substance | CPD (+) cells per 400× microscopic field [1] | increase in hGH secretion compared to diluent-treated cells [2] | SOD2 protein induction [3]
1 | pGAGTATGAG (DNA, 5' {P}, backbone not given here) [SEQ ID NO: 1] | none | – | –
2 | thymidine dinucleotide [pTpT] | none | 45%±25% | SOD2 induction was sustained at least through 32 hours
